We go through 32 compounds from US8829035B2, “Agent for treatment or prevention of diseases associated with activity of neurotrophic factors” (Sumitomo Chemical Company, Limited, priority 2009, dated 2014).

Each structure is given as a SMILES string. Where a name gives a salt, the structure may show the parent alone.

The experiment concerns activity of 200 ng/mL of NGF (NXF promoter-driven luciferase in PC12 cells). The experiment can be described thus: Luciferase reporter assay (NXF promoter) in PC12 cells: potentiation of NGF activity. The experiment is classed as cell-based, rat. On the set-up: key: +: Showed relatively weak potentiation (potentiation only exhibited at 10 μM); ++: Showed potentiation; +++: Showed particularly strong potentiation (2-fold or greater potentiation of the activity of 200 ng/mL of NGF at 1 μM). The following applies: Test Example 4, same manner as Test Example 1, relative luciferase activity vs 200 ng/mL NGF alone. How it is done:
The forward primer 5′-[…]-3′ and the reverse primer 5′-[…]-3′ were prepared as the PCR primers according to the sequence information for the NXF gene genome sequence (Accession Nos. AB054577 and NC—000085), and the PCR method was used to isolate from approximately 5 kbp upstream from the translated region of the NXF gene promoter portion to the vicinity of the transcription start site. For this, 1 μg of mouse genomic DNA (Takara) was used as the template, and the 2-step PCR reaction was carried out for 35 cycles, the conditions for which were 95° C./1 m in the denaturing step, and 68° C./8 m in the annealing and extension steps, to obtain the PCR product. The NXF promoter fragment was inserted into the SmaI site of the pGL3 Basic vector (Promega) in the upstream of luciferase gene to prepare a reporter plasmid that would express the luciferase enzyme driven by the NXF promoter.
PC12 cells (available from the ATCC) were cultured using RPMI medium (GIBCO-BRL) with 5% FCS (GIBCO-BR) and 15% horse serum (GIBCO-BRL) added, and 1 mM in sodium pyruvate (GIBCO-BRL), at 37° C. in the presence of 5% CO2. After transfection in 10^6 of these PC12 cells for 2 days with 12 μg of the above-described reporter plasmid and 1 μg of pRC/RSV vector (Invitrogen) using the Lipofectamine 2000 reagent (Invitrogen), the medium was exchanged for fresh medium containing 40 mg/L of geneticin sulfate (GIBCO), and this was cultured continuously. Culturing was continued for approximately 1 month with medium exchange of the cultured medium containing 40 mg/L of geneticin sulfate (GIBCO) every several days, with the result that multiple colonies of the obtained cells were picked up. Among these, one of the colonies that induced luciferase activity in the presence of 40 ng/mL of NGF (Wako Pure Chemicals) was selected and used for the cells to evaluate the activity of the compounds below.
These cells were set up in 96-well plates with 80% confluence, and the luciferase reporter assay was conducted using the Promega Steady Glo luciferase assay kit. The procedure was carried out overnight (approx. 16 hours) using culture medium containing the compound, and the Steady Glo substrate solution was added to the cells in half-diluted in PBS after removal of all remaining medium containing the compound. After this was allowed to stand for 30 minutes, the respective quantity of light produced was measured with a luminometer (Envision Perkin Elmer).
The activity of the compounds for evaluation was measured as the potentiation of the activity of 200 ng/mL of NGF. For the experiment control wells, the negative control well had medium containing only a final concentration of 0.1% DMSO, the positive control well had medium containing a saturation concentration of NGF. In addition, a test well was set up containing 0.1% DMSO with 200 ng/mL of NGF added corresponding to a 0 compound concentration. When its luciferase activity was taken as a standard, the relative luciferase activity could be calculated for the test wells to which the compound solution (dissolved in DMSO and prepared to have a final DMSO concentration of 0.1%) had been added in addition to the 200 ng/mL of NGF, to find the potentiation of the activity of 200 ng/mL of NGF due to that compound.
As to `c1ccc2oc(-c3ccc4c(c3)nc(-c3ccoc3)n4C3CCOCC3)nc2c1` [Ex. 64, 5-(benzoxazol-2-yl)-2-(furan-3-yl)-1-(tetrahydropyran-4-yl)benzimidazole], the “Activity (potentiation of NGF activity)” value is listed as “++”.

As to `COc1ccc2oc(-c3ccc4c(c3)nc(C)n4C3CCOCC3)nc2c1` [Ex. 66, 5-(5-methoxybenzoxazol-2-yl)-2-methyl-1-(tetrahydropyran-4-yl)benzimidazole], the “Activity (potentiation of NGF activity)” value is given as “++”.

On to `NCc1nc2cc(-c3nc4ccccc4o3)ccc2n1C1CCOCC1` [Ex. 67, 2-aminomethyl-5-(benzoxazol-2-yl)-1-(tetrahydropyran-4-yl)benzimidazole hydrochloride], for which the “Activity (potentiation of NGF activity)” value is given as “+”.

Take `c1ccc(CCc2nc3cc(-c4nc5ccccc5o4)ccc3n2C2CCOCC2)cc1` [Ex. 68, 5-(benzoxazol-2-yl)-2-(2-phenylethyl)-1-(tetrahydropyran-4-yl)benzimidazole]: the “Activity (potentiation of NGF activity)” value is recorded as “++”.

Regarding `C(#Cc1nc2cc(-c3nc4ccccc4o3)ccc2n1C1CCOCC1)c1ccccc1` [Ex. 69, 5-(benzoxazol-2-yl)-2-(2-phenylethynyl)-1-(tetrahydropyran-4-yl)benzimidazole], the “Activity (potentiation of NGF activity)” value was “++”.

Regarding `Cc1nc2cc(-c3nc4cc(C5CCCCC5)ccc4o3)ccc2n1C1CCOCC1` [Ex. 72, 5-(5-cyclohexylbenzoxazol-2-yl)-2-methyl-1-(tetrahydropyran-4-yl)benzimidazole], the “Activity (potentiation of NGF activity)” value is on record as “++”.

Take `Cc1nc2cc(-c3nc4cc(C#N)ccc4o3)ccc2n1C1CCOCC1` [Ex. 75, 5-(5-cyanobenzoxazol-2-yl)-2-methyl-1-(tetrahydropyran-4-yl)benzimidazole]: the “Activity (potentiation of NGF activity)” value is “++”.

For `Cc1nc2cc(-c3nc4cc(OC(F)(F)F)ccc4o3)ccc2n1C1CCOCC1` [Ex. 76, 5-(5-trifluoromethoxybenzoxazol-2-yl)-2-methyl-1-(tetrahydropyran-4-yl)benzimidazole], the “Activity (potentiation of NGF activity)” value is given as “++”.

Regarding `ClC(Cl)(Cl)c1nc2cc(-c3nc4ccccc4o3)ccc2n1C1CCOCC1` [Ex. 77, 5-(benzoxazol-2-yl)-1-(tetrahydropyran-4-yl)-2-trichloromethylbenzimidazole], the “Activity (potentiation of NGF activity)” value is “+”.

Consider `Cc1nc2cc(-c3nc4ccccc4o3)ccc2n1C1CCC(=O)CC1` [Ex. 78, 5-(benzoxazol-2-yl)-1-(cyclohexanon-4-yl)-2-methylbenzimidazole], for which the “Activity (potentiation of NGF activity)” value is reported as “++”.

In the case of `Cc1nc2cc(-c3nc4ccccc4o3)ccc2n1Cc1ccccn1` [Ex. 79, 5-(benzoxazol-2-yl)-2-methyl-1-(2-picolyl)benzimidazole], the “Activity (potentiation of NGF activity)” value was “++”.

Take `Cc1nc2cc(-c3nc4ccccc4o3)ccc2n1CCC1CCOCC1` [Ex. 83, 5-(benzoxazol-2-yl)-2-methyl-1-(2-(tetrahydropyran-4-yl)ethyl)benzimidazole]: the “Activity (potentiation of NGF activity)” value is listed as “++”.

Take `Cc1nc2cc(-c3nc4ccccc4o3)ccc2n1CC1CCOCC1` [Ex. 84, 5-(benzoxazol-2-yl)-2-methyl-1-((tetrahydropyran-4-yl)methyl)benzimidazole]: the “Activity (potentiation of NGF activity)” value is reported as “++”.

`CCOC(=O)Cc1nc2cc(-c3nc4ccccc4o3)ccc2n1C1CCOCC1` [Ex. 86, 5-(benzoxazol-2-yl)-2-(ethoxycarbonylmethyl)-1-(tetrahydropyran-4-yl)benzimidazole]: the “Activity (potentiation of NGF activity)” value is given as “++”.

`Cc1nc2cc(-c3nc4ccccc4o3)ccc2n1C1CCCc2ccccc21` (centres unmarked) [Ex. 87, 5-(benzoxazol-2-yl)-2-methyl-1-(1,2,3,4-tetrahydronaphthalen-1-yl)benzimidazole]: the “Activity (potentiation of NGF activity)” value was “++”.

Take `Cc1nc2cc(-c3nc4ccccc4o3)ccc2n1C(c1ccccc1)c1ccccc1` [Ex. 89, 5-(benzoxazol-2-yl)-2-diphenylmethyl-2-methylbenzimidazole]: the “Activity (potentiation of NGF activity)” value is “++”.

Take `c1ccc2oc(-c3ccc4c(c3)nc(C3CCCO3)n4C3CCOCC3)nc2c1` (centres unmarked) [Ex. 90, 5-(benzoxazol-2-yl)-2-(tetrahydrofuran-2-yl)-1-(tetrahydropyran-4-yl)benzimidazole]: the “Activity (potentiation of NGF activity)” value is “++”.

Regarding `Cc1nc2cc(-c3nc4ccccc4o3)ccc2n1CC(=O)O` [Ex. 92, 5-(benzoxazol-2-yl)-1-carboxymethyl-2-methylbenzimidazole], the “Activity (potentiation of NGF activity)” value is listed as “++”.

On to `Cc1nc2cc(-c3nc4ccccc4o3)cc(C(F)(F)F)c2n1C1CCOCC1` [Ex. 94], for which the “Activity (potentiation of NGF activity)” value is “++”.

Consider `Cc1nc2cc(-c3nc4ccccc4o3)ccc2n1CCCN1CCOCC1` [Ex. 96, 5-(benzoxazol-2-yl)-2-methyl-1-(3-(morpholine-4-yl)propyl)benzimidazole], for which the “Activity (potentiation of NGF activity)” value was “++”.

Regarding `Cc1nc2cc(-c3nc4cc(C(=O)O)ccc4o3)ccc2n1C1CCOCC1` [Ex. 97, 5-(5-carboxylbenzoxazol-2-yl)-2-methyl-1-(tetrahydropyran-4-yl)benzimidazole], the “Activity (potentiation of NGF activity)” value is “++”.

In the case of `CCCNC(=O)c1ccc2oc(-c3ccc4c(c3)nc(C)n4C3CCOCC3)nc2c1` [Ex. 99, 2-methyl-5-(5-n-propylaminocarbonylbenzoxazol-2-yl)-1-(tetrahydropyran-4-yl)benzimidazole], the “Activity (potentiation of NGF activity)” value is “++”.

Take `CC(=O)NCc1nc2cc(-c3nc4cc(Cl)ccc4o3)ccc2n1C1CCOCC1` [Ex. 104, 2-acetylaminomethyl-5-(5-chlorobenzoxazol-2-yl)-1-(tetrahydropyran-4-yl)benzimidazole]: the “Activity (potentiation of NGF activity)” value is recorded as “++”.

On to `Cc1nc2cc(-c3nc4ccccc4o3)ccc2n1CC(=O)N1CCOCC1` [Ex. 107], for which the “Activity (potentiation of NGF activity)” value was “+”.

`Cc1nc2cc(-c3nc4ccccc4o3)ccc2n1CCNC(=O)CCC(=O)O` [Ex. 108, 4-oxo-4-(2-(5-(benzoxazol-2-yl)-2-methylbenzimidazol-1-yl)ethyl)aminobutyric acid]: the “Activity (potentiation of NGF activity)” value was “++”.

Take `Cc1nc2cc(-c3nc4ccccc4o3)ccc2n1CCNC(=O)C(F)(F)F` [Ex. 109, 5-(benzoxazol-2-yl)-2-methyl-1-(2-trifluoroacetylaminoethyl)benzimidazole]: the “Activity (potentiation of NGF activity)” value is “++”.

Turning to `c1ccc2oc(-c3ccc4c(c3)nc(CC3CCOCC3)n4C3CCOCC3)nc2c1` [Ex. 111, 5-(benzoxazol-2-yl)-1-(tetrahydropyran-4-yl)-2-(tetrahydropyran-4-yl)methylbenzimidazole], the “Activity (potentiation of NGF activity)” value is recorded as “++”.

Consider `Cc1nc2cc(-c3nc4ccccc4o3)c(Cl)cc2n1C1CCOCC1` [Ex. 112, 5-(benzoxazol-2-yl)-2-methyl-1-(tetrahydropyran-4-yl)-6-chlorobenzimidazole], for which the “Activity (potentiation of NGF activity)” value was “++”.

`COC(=O)c1ccc(Cn2c(C)nc3cc(-c4nc5ccccc5o4)ccc32)cc1` [Ex. 113, 5-(benzoxazol-2-yl)-1-(4-methoxycarbonylphenylmethyl)-2-methylbenzimidazole]: the “Activity (potentiation of NGF activity)” value is listed as “++”.

For `Cc1nc2cc(-c3nc4ccccc4o3)ccc2n1Cc1ccc(C(=O)O)cc1` [Ex. 114, 5-(benzoxazol-2-yl)-1-(4-carboxyphenylmethyl)-2-methylbenzimidazole], the “Activity (potentiation of NGF activity)” value is on record as “++”.

As to `COC(=O)c1cccc(Cn2c(C)nc3cc(-c4nc5ccccc5o4)ccc32)c1` [Ex. 117, 5-(benzoxazol-2-yl)-1-(3-methoxycarbonylphenylmethyl)-2-methylbenzimidazole], the “Activity (potentiation of NGF activity)” value is reported as “++”.

Turning to `CC(=O)OCC(c1ccccc1)n1c(C)nc2cc(-c3nc4ccccc4o3)ccc21` (centres unmarked) [Ex. 118, 5-(1-benzoxazol-2-yl)-1-(1-acetoxy-2-phenylethan-2-yl)-2-methylbenzimidazole], the “Activity (potentiation of NGF activity)” value was “++”.
